Laboratory results from patent US20230059898A1 (priority 2020, published 2023).
Structures can show the parent of a compound that is named as a salt.

What follows are molecules tested on biocontrol strain ST15.
Assay type: cell-based, Bacillus altitudinis
Also: key: +: not sensitive; −: sensitive.

Row | Structure (SMILES) | chemical sensitivity of strain ST15
1 | N=C(N)N [Guanidine hydrochloride] | +
2 | c1ccc(-c2nn(-c3ccccc3)[n+](-c3cccc4ccccc34)n2)cc1 [Tetrazolium violet] | −
3 | CCCCCCCCCCCCCCOS(=O)(=O)[O-].[Na+] [Sodium tetradecyl sulfate] | −
4 | N[C@H](CO)C(=O)O [D-serine] | −
5 | [Cl-].[Li+] [Lithium chloride] | +
6 | [Cl-].[Na+] [1% NaCl, NaCl] | +
7 | CO[C@H]1C[C@H](O[C@H]2[C@H](C)[C@@H](O[C@@H]3O[C@H](C)C[C@H](N(C)C)[C@H]3OC(C)=O)[C@@H](C)C[C@@]3(CO3)C(=O)[C@H](C)[C@@H](OC(C)=O)[C@@H](C)[C@@H](C)OC(=O)[C@@H]2C)O[C@@H](C)[C@@H]1OC(C)=O [Troleandomycin] | −
8 | CCn1cc(C(=O)O)c(=O)c2ccc(C)nc21 [Nalidixic acid] | +
9 | CC(O)C(=O)[O-].[Na+] (centres unmarked) [1% sodium lactate, sodium lactate] | +
10 | COc1cc(-c2ccc(-n3nc(-c4ccccc4)n[n+]3-c3ccccc3)c(OC)c2)ccc1-n1nc(-c2ccccc2)n[n+]1-c1ccccc1.[Cl-].[Cl-] [Tetrazolium blue] | −
11 | CN[C@H](CC(C)C)C(=O)N[C@H]1C(=O)N[C@@H](CC(N)=O)C(=O)N[C@H]2C(=O)N[C@H]3C(=O)N[C@H](C(=O)N[C@H](C(=O)O)c4cc(O)cc(O)c4-c4cc3ccc4O)[C@H](O)c3ccc(c(Cl)c3)Oc3cc2cc(c3O[C@@H]2O[C@H](CO)[C@@H](O)[C@H](O)[C@H]2O[C@H]2C[C@](C)(N)[C@H](O)[C@H](C)O2)Oc2ccc(cc2Cl)[C@H]1O [Vancomycin] | −
12 | CC(=O)O[C@H]1C[C@@]2(C)[C@@H](C[C@@H](O)[C@H]3[C@@]4(C)CC[C@@H](O)[C@@H](C)[C@@H]4CC[C@@]32C)/C1=C(\CCC=C(C)C)C(=O)O [Fusidic acid] | −
13 | CO[C@H]1/C=C/O[C@@]2(C)Oc3c(C)c([O-])c4c(O)c(cc(O)c4c3C2=O)NC(=O)/C(C)=C\C=C\[C@H](C)[C@H](O)[C@@H](C)[C@@H](O)[C@@H](C)[C@H](OC(C)=O)[C@@H]1C.[Na+] [Rifamycin SV] | −
14 | O=[Te]([O-])[O-].[K+].[K+] [Dipotassium trioxotellurate] | +
15 | CCCC(=O)[O-].[Na+] [Sodium butyrate] | +
16 | CCC[C@@H]1C[C@@H](C(=O)N[C@@H]([C@H]2O[C@H](SC)[C@H](O)[C@@H](O)[C@H]2O)[C@@H](C)O)N(C)C1 [Lincomycin] | +
17 | C[C@H]1[C@H](NC(=O)/C(=N\OC(C)(C)C(=O)O)c2csc(N)n2)C(=O)N1S(=O)(=O)O [Aztreonam] | +
